Data on one molecule can be found in patent publication US20260116910A1, “POLYCYCLIC COMPOUNDS AND METHODS THEREOF” (HEPAITECH (BEIJING) BIOPHARMA TECHNOLOGY CO., LTD., priority 2021, published 2026).

What all share (assay type): cell-based
In assay [1] the target is MRGPRX4 (Homo sapiens, UniProt Q96LA9). Kind of assay: MRGPRX4 activation, Fluo-8 Ca2+ FLIPR assay in HEK293T cells stably expressing MRGPRX4. The procedure, abridged:
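Cells seeded overnight to >95% confluence, loaded 40-60 min at room temperature with 2 μM Fluo-8 AM, then kept in HHBS. Baseline read 30 s, compound added, signal followed 150 s more.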

For assay [2], the target named is T1, human TGR5 (Homo sapiens, UniProt Q8TDU6).
T1 sequence (Q8TDU6 1-330): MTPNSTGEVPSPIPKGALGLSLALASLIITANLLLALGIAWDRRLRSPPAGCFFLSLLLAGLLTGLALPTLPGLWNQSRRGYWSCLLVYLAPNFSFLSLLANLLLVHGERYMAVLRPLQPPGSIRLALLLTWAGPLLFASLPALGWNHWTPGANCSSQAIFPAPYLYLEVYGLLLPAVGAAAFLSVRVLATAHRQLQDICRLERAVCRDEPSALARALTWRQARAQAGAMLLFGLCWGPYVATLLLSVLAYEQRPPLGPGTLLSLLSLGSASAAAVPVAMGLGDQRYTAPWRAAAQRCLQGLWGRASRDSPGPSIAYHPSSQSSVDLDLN
Put plainly: TGR5 agonist assessment, CRE-NanoLuc reporter in HEK293T cells. As for the experimental part:
Cells were detached by centrifuging (1000 rpm, 3 min). The pellet was re-suspended in medium, and cell density was adjusted to about 1×10^6 cells/mL. […] Cells in the microplates were cultured overnight.
Culture medium was replaced, and compounds were added to the wells. 0.01% DMSO (v/v) served as negative control. Plates were incubated at 37° C. in 5% CO2 for 24 hr.
In the following day, a 10 μL aliquot of cell culture medium was removed from each well and combined with 40 μL culture medium plus […] assay buffer (containing 20 mM of the luciferase substrate coelenterazine). After 5 min incubation, luminescence was measured using an EnVision plate reader (PerkinElmer).
In some embodiments, gradient diluted solutions of several concentrations were used to treat cells and corresponding responses were used to fit sigmoid function and to derive EC50 in Origin.

The target in assay [3] is T2, human FXR (NR1H4) (Homo sapiens, UniProt Q96RI1).
T2 sequence (Q96RI1 1-476 isoform Q96RI1-1): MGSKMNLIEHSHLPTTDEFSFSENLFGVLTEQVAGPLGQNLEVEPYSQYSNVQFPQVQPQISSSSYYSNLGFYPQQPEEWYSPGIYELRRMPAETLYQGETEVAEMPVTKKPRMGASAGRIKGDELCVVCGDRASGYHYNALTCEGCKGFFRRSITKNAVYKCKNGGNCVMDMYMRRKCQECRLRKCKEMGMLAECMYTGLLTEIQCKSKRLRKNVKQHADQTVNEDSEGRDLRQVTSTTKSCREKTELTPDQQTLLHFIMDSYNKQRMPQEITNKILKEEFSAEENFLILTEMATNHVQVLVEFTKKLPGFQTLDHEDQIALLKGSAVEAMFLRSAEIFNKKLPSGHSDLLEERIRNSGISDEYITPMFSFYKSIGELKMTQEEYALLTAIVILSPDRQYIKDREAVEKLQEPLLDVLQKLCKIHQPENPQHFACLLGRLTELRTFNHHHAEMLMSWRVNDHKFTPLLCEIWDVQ
Put plainly: Human FXR (NR1H4) agonist assessment, FXRE-NanoLuc reporter in HEK293T cells. Particulars: FXR activation, HEK293T FXRE-NanoLuc reporter, 24 hr. Summed up: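 HEK293T cells stably expressing human FXR with an FXRE-NanoLuc reporter were treated with compounds for 24 hr at 37 °C, with 0.01% DMSO as negative control. Medium was read for luminescence after 5 min with coelenterazine. EC50 was fitted by sigmoid to concentration-response data.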

Sequence of MRGPRX4 (Q96LA9 whole entry): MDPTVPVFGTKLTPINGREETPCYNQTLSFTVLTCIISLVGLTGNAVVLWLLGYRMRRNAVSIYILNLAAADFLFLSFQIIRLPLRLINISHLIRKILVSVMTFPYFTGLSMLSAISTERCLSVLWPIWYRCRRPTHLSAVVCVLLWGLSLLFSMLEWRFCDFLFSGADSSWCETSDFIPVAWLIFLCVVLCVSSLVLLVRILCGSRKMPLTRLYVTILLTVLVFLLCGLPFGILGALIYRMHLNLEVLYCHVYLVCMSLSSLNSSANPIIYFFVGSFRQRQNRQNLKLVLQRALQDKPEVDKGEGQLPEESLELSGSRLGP

In general, EC50 refers to the midpoint of the concentration-response curve. With `CC[C@H]1[C@@H](O)[C@@H]2[C@H](CC[C@]3(C)[C@@H]([C@H](C)CCNC(=O)NS(=O)(=O)N(C)C)CC[C@@H]23)[C@@]2(C)CCCC[C@@H]12` [5-15], the “MRGPRX4 activation, Average” value in assay [1] (E3-6-2, 1st of 6 concentration columns (head not in rows shown)) worked out at 0.087; in assay [1] (E3-6-2, 3rd of 6 concentration columns (head not in rows shown)), 0.013; in assay [1] (E3-6-2, 6th of 6 concentration columns (head not in rows shown)) it was 0.010; in assay [1] (E3-6-2, concentration not given), 0.010. Moreover, the EC50 in assay [1] (MRGPRX4 activation, Ca2+ fluorescence, no activation in tested range reported as III, read-out: Activity (EC50 μM)) is more than 100 µM; in assay [2] it was 13 nM; in assay [3] (read-out: EC50), less than 1000 nM. Further, in assay [3], the “Efficacy (maximum measured induction of NanoLuc, normalized to CDCA set as 100%)” value is reported as “C (100%<efficacy <=300%)”.
